{"source": "patent US10385096B2", "about": "“Pro-Amb reverse turn restricted bioactive peptide analogues” (Council of Scientific & Industrial Research, priority 2016, dated 2019)", "key": {"AT2 receptor [1]": {"tested_on": "AT2 receptor", "assay": "neurite outgrowth assay in NG108-15 cells (functional activity at the AT2 receptor)", "type": "cell-based", "settings": "PD 123319 alone (10 μM), 3 days", "protocol": "The functional activity of the analogues of the present invention was evaluated at the AT2 receptor, applying a neurite outgrowth assay in NG108-15 [108CC15] (ATCC® HB12317™) cells. […] The signaling pathways involve a sustained increase in Rap1/BRaf/p42/p44mapk activity and activation of the nitric oxide/guanylyl cyclase/cGMP pathway. NG108-15 cells were treated in absence or presence of Ang II and PD 123319, an AT2 receptor antagonist. The cells were plated at the initial density of 3.6×10^4 cells/petri dish (35 mm) and were cultured for 3 days in the absence (−) or presence (+) of 100 nM Ang II, 1 μM analogue 3, analogue 2 and analogue 1 alone or in combination with 10 μM antagonist PD 123,319 or 100 nM AngII. After 3 days of treatment, the cells were examined under a phase contrast microscope and micrographs were taken. Cells with at least one neurite longer than a cell body were counted as a positive neurite outgrowth. Antagonistic effect was established through co-incubation with Ang II resulting in reduced Ang II-induced neurite outgrowth, verifying blockage of the AT2 receptor. […] The number of cells with neurites was expressed as the percentage of the total number in the micrographs (at least 260 cells according to the experiment). […]\nNG108-15 [108CC15] […] Cells with at least one neurite longer than a cell body were counted as positive for neurite outgrowth. […]"}, "AT2 receptor [2]": {"tested_on": "AT2 receptor", "settings": "3-day treatment, undifferentiated NG108-15 cells; reported by Blankley et al; cited from earlier work"}}, "data": [{"compound": "Cc1cc(Cn2cnc3c2C[C@@H](C(=O)O)N(C(=O)C(c2ccccc2)c2ccccc2)C3)ccc1N(C)C", "note": "[PD 123319]", "values": [{"measurement": "cell morphology compared to untreated cells", "setting": "AT2 receptor [1]", "result": "did not alter the morphology"}]}, {"compound": "Asp-Arg-Val-Tyr-Ile-His-Pro-Phe (DRVYIHPF) [Ang II, octapeptide, endogenous substrate for AT1 and AT2 receptors]", "values": [{"measurement": "neurite outgrowth in NG108-15 cells (earlier reported)", "setting": "AT2 receptor [2]", "result": "induces neurite outgrowth"}]}, {"compound": "CGP-42112A", "values": [{"measurement": "neurite outgrowth in NG108-15 cells (earlier reported)", "setting": "AT2 receptor [2]", "result": "induces neurite outgrowth"}]}]}
